Data reported in patent US11053204B2, “Pyrimidinyloxy benzene derivatives as herbicides” (FMC Corporation, priority 2015, dated 2021).

Legend:
Assay type in all cases: in vivo
[1] = tested on: pigweed, palmer (palmer pigweed, Amaranthus palmeri); experiment: Test C preemergence, plant response rating
kochia (Kochia scoparia) [2] = experiment: Test C preemergence, plant response rating
kochia (Kochia scoparia) [3] = experiment: Test A preemergence, visual injury rating
Summary of the method: (§1)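 Visual 0–100 rating (100 = complete control) taken about 10 d post-treatment relative to untreated checks. Preemergence: directed soil spray on sown loam/sand pots. Postemergence: seedlings 2–10 cm, 1–2 leaf. Non-phytotoxic solvent formulation with surfactant.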

[4] = tested on: ragweed (common ragweed, Ambrosia elatior); experiment: Test A preemergence, visual injury rating
Summary of the method: as §1

[5] = tested on: pigweed (Amaranthus retroflexus); experiment: Test A preemergence, visual injury rating
Summary of the method: as §1

[6] = tested on: barnyardgrass (Echinochloa crus-galli); experiment: Test A preemergence, visual injury rating
Summary of the method: as §1

[7] = tested on: giant foxtail (Setaria faberii); experiment: Test A preemergence, visual injury rating
Summary of the method: as §1

[8] = tested on: Italian ryegrass (Lolium multiflorum); experiment: Test A preemergence, visual injury rating
Summary of the method: as §1

[9] = tested on: blackgrass (Alopecurus myosuroides); experiment: Test A postemergence, visual injury rating; conditions: 0 is no effect, 100 is complete control; for Blackgrass plant response rating: 0 to 100 scale, approximately 10 days
Summary of the method: as §1

kochia (Kochia scoparia) [10] = experiment: Test A postemergence, visual injury rating; conditions: 0 is no effect, 100 is complete control; for Kochia plant response rating: 0 to 100 scale, approximately 10 days
Summary of the method: as §1

corn (Zea mays) = experiment: Test A postemergence, visual injury rating; conditions: 0 is no effect, 100 is complete control; for Corn plant response rating: 0 to 100 scale, approximately 10 days
Summary of the method: as §1

[11] = tested on: ragweed (common ragweed, Ambrosia elatior); experiment: Test A postemergence, visual injury rating; conditions: 0 is no effect, 100 is complete control; for Ragweed plant response rating: 0 to 100 scale, approximately 10 days
Summary of the method: as §1

[12] = tested on: galium (catchweed bedstraw, Galium aparine); experiment: Test A postemergence, visual injury rating; conditions: 0 is no effect, 100 is complete control; for Galium plant response rating: 0 to 100 scale, approximately 10 days
Summary of the method: as §1

[13] = tested on: pigweed (Amaranthus retroflexus); experiment: Test A postemergence, visual injury rating; conditions: 0 is no effect, 100 is complete control; for Pigweed plant response rating: 0 to 100 scale, approximately 10 days
Summary of the method: as §1

[14] = tested on: barnyardgrass (Echinochloa crus-galli); experiment: Test A postemergence, visual injury rating; conditions: 0 is no effect, 100 is complete control; for Barnyardgrass plant response rating: 0 to 100 scale, approximately 10 days
Summary of the method: as §1

[15] = tested on: giant foxtail (Setaria faberii); experiment: Test A postemergence, visual injury rating; conditions: 0 is no effect, 100 is complete control; for Foxtail, Giant plant response rating: 0 to 100 scale, approximately 10 days
Summary of the method: as §1

[16] = tested on: Italian ryegrass (Lolium multiflorum); experiment: Test A postemergence, visual injury rating; conditions: 0 is no effect, 100 is complete control; for Ryegrass, Italian plant response rating: 0 to 100 scale, approximately 10 days
Summary of the method: as §1

[17] = tested on: wheat (Triticum aestivum); experiment: Test A postemergence, visual injury rating; conditions: 0 is no effect, 100 is complete control; for Wheat plant response rating: 0 to 100 scale, approximately 10 days
Summary of the method: as §1

[18] = tested on: wild mustard (Sinapis arvensis); experiment: Test C postemergence, plant response rating; conditions: for Mustard, Wild plant response rating: scale 0 to 100 (0 no effect, 100 complete control)
Summary of the method: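 After sowing in loam–sand blend or silt loam, pots were sprayed preemergence; separately grown 1- to 4-leaf plants were sprayed postemergence. Following 13 to 15 d under greenhouse conditions, injury was rated visually on a 0 to 100 scale.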

[19] = tested on: surinam grass (Brachiaria decumbens); experiment: Test C preemergence, plant response rating
[20] = 31 g ai/ha, 0 to 100 scale, 0 no effect, 100 complete control
[21] = 125 g ai/ha, 0 to 100 scale (0 no effect, 100 complete control)
[22] = 500 g ai/ha, 0 to 100 scale (0 no effect, 100 complete control)

O=C(CCC(F)(F)F)c1c(Cl)cccc1Oc1ncc(Cl)cn1 [Compound 107, 1-[2-chloro-6-[(5-chloro-2-pyrimidinyl)oxy]phenyl]-4,4,4-trifluoro-1-butanone]
40: Barnyardgrass plant response rating ([14]; 31 g ai/ha)
0: Plant response rating, Ragweed [4, 20] | Wheat plant response rating ([17]; 31 g ai/ha)
98: Plant response rating, Surinam Grass ([19]; 62 g ai/ha, scale 0 to 100) | Plant response rating, Surinam Grass ([19]; 125 g ai/ha, scale of 0 to 100)
100: Plant response rating, Pigweed, Palmer ([1]; 31 g ai/ha, scale 0 to 100) | Plant response rating, Pigweed, Palmer ([1]; 62 g ai/ha, scale 0 to 100) | Plant response rating, Pigweed, Palmer ([1]; 125 g ai/ha, scale of 0 to 100) | Plant response rating, Kochia (kochia (Kochia scoparia) [2]; 31 g ai/ha, scale 0 to 100) | Plant response rating, Kochia (kochia (Kochia scoparia) [2]; 62 g ai/ha, scale 0 to 100) | Plant response rating, Kochia (kochia (Kochia scoparia) [2]; 125 g ai/ha, scale of 0 to 100) | Plant response rating, Kochia (kochia (Kochia scoparia) [3]; [21]) | Plant response rating, Pigweed [5, 20] | Plant response rating, Pigweed [5, 21] | Plant response rating, Foxtail, Giant [7, 20] | Plant response rating, Foxtail, Giant [7, 21] | Pigweed plant response rating ([13]; 31 g ai/ha) | Pigweed plant response rating ([13]; 125 g ai/ha) | Mustard, Wild plant response rating ([18]; 125 g ai/ha)
80: Plant response rating, Ryegrass, Italian [8, 21] | Ryegrass, Italian plant response rating ([16]; 125 g ai/ha)
50: Blackgrass plant response rating ([9]; 31 g ai/ha)
70: Foxtail, Giant plant response rating ([15]; 31 g ai/ha)
85: Plant response rating, Mustard, Wild ([18]; 16 g ai/ha, scale of 0 to 100)
95: Mustard, Wild plant response rating ([18]; 62 g ai/ha)
90: Plant response rating, Kochia (kochia (Kochia scoparia) [3]; [20]) | Plant response rating, Barnyardgrass [6, 20] | Blackgrass plant response rating ([9]; 125 g ai/ha) | Kochia plant response rating (kochia (Kochia scoparia) [10]; 31 g ai/ha) | Kochia plant response rating (kochia (Kochia scoparia) [10]; 125 g ai/ha) | Galium plant response rating ([12]; 31 g ai/ha) | Galium plant response rating ([12]; 125 g ai/ha) | Barnyardgrass plant response rating ([14]; 125 g ai/ha) | Foxtail, Giant plant response rating ([15]; 125 g ai/ha) | Plant response rating, Mustard, Wild ([18]; 31 g ai/ha, scale 0 to 100)
30: Plant response rating, Ryegrass, Italian [8, 20] | Corn plant response rating (corn (Zea mays); 31 g ai/ha) | Ragweed plant response rating ([11]; 125 g ai/ha) | Wheat plant response rating ([17]; 125 g ai/ha)
20: Plant response rating, Ragweed [4, 21] | Ragweed plant response rating ([11]; 31 g ai/ha) | Ryegrass, Italian plant response rating ([16]; 31 g ai/ha)
100%: pest or weed control at 125 g/ha ([6]; Echinochloa crus-galli, pre-emergence, 240 h, 125 g ai/ha, 0 to 100 scale (0 no effect, 100 complete control), read-out: Barnyardgrass plant response rating)
60: Corn plant response rating (corn (Zea mays); 125 g ai/ha) | Plant response rating, Surinam Grass ([19]; 31 g ai/ha, scale 0 to 100)

O=C(CCCC(F)(F)F)c1c(Oc2ncc(Cl)cn2)cccc1C(F)(F)F [Compound 125]
50: Foxtail, Giant plant response rating ([15]; 125 g ai/ha)
70: Plant response rating, Ryegrass, Italian [8, 21]
98: Plant response rating, Kochia (kochia (Kochia scoparia) [2]; 125 g ai/ha, scale of 0 to 100) | Mustard, Wild plant response rating ([18]; 62 g ai/ha)
30: Blackgrass plant response rating ([9]; 125 g ai/ha) | Corn plant response rating (0 to 100 scale) (corn (Zea mays); 500 g ai/ha) | Ragweed plant response rating ([11]; 125 g ai/ha) | Barnyardgrass plant response rating ([14]; 125 g ai/ha) | Wheat plant response rating (0 to 100 scale) ([17]; 500 g ai/ha)
95: Plant response rating, Mustard, Wild ([18]; 31 g ai/ha, scale 0 to 100)
10: Corn plant response rating (corn (Zea mays); 125 g ai/ha)
60: Plant response rating, Kochia (kochia (Kochia scoparia) [2]; 31 g ai/ha, scale 0 to 100)
20: Plant response rating, Ragweed [4, 21] | Ryegrass, Italian plant response rating ([16]; 125 g ai/ha) | Wheat plant response rating ([17]; 125 g ai/ha) | Plant response rating, Surinam Grass ([19]; 31 g ai/ha, scale 0 to 100)
100: Plant response rating, Pigweed, Palmer ([1]; 31 g ai/ha, scale 0 to 100) | Plant response rating, Pigweed, Palmer ([1]; 62 g ai/ha, scale 0 to 100) | Plant response rating, Pigweed, Palmer ([1]; 125 g ai/ha, scale of 0 to 100) | Plant response rating, Kochia (kochia (Kochia scoparia) [3]; [21]) | Kochia plant response rating (kochia (Kochia scoparia) [3]; [22]) | Plant response rating, Pigweed [5, 21] | Pigweed plant response rating [5, 22] | Plant response rating, Barnyardgrass [6, 21] | Barnyardgrass plant response rating [6, 22] | Plant response rating, Foxtail, Giant [7, 21] | Foxtail, Giant plant response rating [7, 22] | Ryegrass, Italian plant response rating [8, 22] | Kochia plant response rating (kochia (Kochia scoparia) [10]; 125 g ai/ha) | Kochia plant response rating (0 to 100 scale) (kochia (Kochia scoparia) [10]; 500 g ai/ha) | Galium plant response rating ([12]; 125 g ai/ha) | Galium plant response rating (0 to 100 scale) ([12]; 500 g ai/ha) | Pigweed plant response rating ([13]; 125 g ai/ha) | Pigweed plant response rating (0 to 100 scale) ([13]; 500 g ai/ha) | Mustard, Wild plant response rating ([18]; 125 g ai/ha)
40: Ragweed plant response rating [4, 22] | Ragweed plant response rating (0 to 100 scale) ([11]; 500 g ai/ha) | Plant response rating, Surinam Grass ([19]; 62 g ai/ha, scale 0 to 100)
65: Plant response rating, Surinam Grass ([19]; 125 g ai/ha, scale of 0 to 100)
90: Plant response rating, Kochia (kochia (Kochia scoparia) [2]; 62 g ai/ha, scale 0 to 100) | Blackgrass plant response rating (0 to 100 scale) ([9]; 500 g ai/ha) | Barnyardgrass plant response rating (0 to 100 scale) ([14]; 500 g ai/ha) | Foxtail, Giant plant response rating (0 to 100 scale) ([15]; 500 g ai/ha) | Ryegrass, Italian plant response rating (0 to 100 scale) ([16]; 500 g ai/ha) | Plant response rating, Mustard, Wild ([18]; 16 g ai/ha, scale of 0 to 100)
